#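 Following 48 hours of exposure in 96-well plates, responses at five concentrations were used to interpolate endpoints linearly. At the GI50, growth is halved.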 Activity calls are given as the source filed them. Cut-off read from the data, not from the text of the source: active = GI50 up to about 1.1 µM and inactive = higher.
# How the values were obtained:
# Experiment in all cases: NCI anticancer screen, dose series, 48 h
# HCT-116 = system: HCT-116
# 786-0 = system: 786-0
# K562 = system: K562
# SK-OV-3 = system: SK-OV-3
# M14 = system: M14
# EKVX = system: EKVX
# MOLT-4 = system: MOLT-4
# LXFL 529 = system: LXFL 529
# OVCAR-8 = system: OVCAR-8
# SK-MEL-2 = system: SK-MEL-2
# HCT-15 = system: HCT-15
# A498 = system: A498
# IGROV-1 = system: IGROV-1
# NCI-H522 = system: NCI-H522
# RXF 393 = system: RXF 393
Compound,GI50 (HCT-116),GI50 (786-0),GI50 (K562),GI50 (SK-OV-3),GI50 (M14),GI50 (EKVX),GI50 (MOLT-4),GI50 (LXFL 529),GI50 (OVCAR-8),GI50 (SK-MEL-2),GI50 (HCT-15) [µM],GI50 (A498),GI50 (IGROV-1),GI50 (NCI-H522),GI50 (RXF 393)
CC1(O)CC2C(CC1SCCO)C2(C)C (stereo not given),> 100 µM (inactive),> 100 µM (inactive),> 100 µM (inactive),> 100 µM (inactive),> 100 µM (inactive),> 100 µM (inactive),> 100 µM (inactive),> 100 µM (inactive),> 100 µM (inactive),> 100 µM (inactive),> 100,> 100 µM (inactive),> 100 µM (inactive),–,–
CC1NOC(=O)C1/N=N/c1ccccc1Br (stereo not given),32.5 µM (inactive),17.5 µM (inactive),22.9 µM (inactive),38.1 µM (inactive),21.4 µM (inactive),34.2 µM (inactive),29 µM (inactive),15.7 µM (inactive),22 µM (inactive),16.2 µM (inactive),28.4,26.8 µM (inactive),36 µM (inactive),18.5 µM (inactive),13.9 µM (inactive)
N/N=C1/C(=O)N(c2ccc(Cl)cc2)C(=O)C(=O)C1c1nc2ccccc2s1 (stereo not given),> 100 µM (inactive),> 100 µM (inactive),60.3 µM (inactive),> 100 µM (inactive),> 100 µM (inactive),> 100 µM (inactive),> 100 µM (inactive),> 100 µM (inactive),> 100 µM (inactive),> 100 µM (inactive),72.1,> 100 µM (inactive),> 100 µM (inactive),> 100 µM (inactive),> 100 µM (inactive)
CN/N=C(/CC(=O)c1sc(-n2nc(-c3ccccc3)cc2-c2ccccc2)nc1C)C(=O)Nc1ccc(Cl)c(Cl)c1,34.5 µM (inactive),39.3 µM (inactive),20.4 µM (inactive),24.6 µM (inactive),–,0.787 µM (active),16.7 µM (inactive),26.3 µM (inactive),51.1 µM (inactive),> 100 µM (inactive),31.3,16.1 µM (inactive),61 µM (inactive),28.1 µM (inactive),26.2 µM (inactive)
[O-][S+]1c2ccc(Cl)cc2CC(SSC2Cc3cc(Cl)ccc3[S+]([O-])c3ccccc32)c2ccccc21 (stereo not given),> 100 µM (inactive),> 100 µM (inactive),> 100 µM (inactive),> 100 µM (inactive),> 100 µM (inactive),> 100 µM (inactive),> 100 µM (inactive),> 100 µM (inactive),> 100 µM (inactive),> 100 µM (inactive),–,–,> 100 µM (inactive),> 100 µM (inactive),> 100 µM (inactive)
IC[P+]1(c2ccccc2)CCCC1,49.8 µM (inactive),> 100 µM (inactive),35.9 µM (inactive),> 100 µM (inactive),46.5 µM (inactive),16.7 µM (inactive),72.9 µM (inactive),29.6 µM (inactive),32.4 µM (inactive),> 100 µM (inactive),4.15,23.8 µM (inactive),> 100 µM (inactive),8.36 µM (inactive),76.7 µM (inactive)
COC(=O)C1=C(C)N(NC(N)=O)C(C)(O)C12CCOC2=O (stereo not given),> 100 µM (inactive),> 100 µM (inactive),> 100 µM (inactive),> 100 µM (inactive),> 100 µM (inactive),> 100 µM (inactive),> 100 µM (inactive),> 100 µM (inactive),> 100 µM (inactive),> 100 µM (inactive),> 100,> 100 µM (inactive),> 100 µM (inactive),> 100 µM (inactive),–
COC(=O)CCc1cccnc1/C=N/O,> 100 µM (inactive),> 100 µM (inactive),> 100 µM (inactive),> 100 µM (inactive),> 100 µM (inactive),> 100 µM (inactive),> 100 µM (inactive),> 100 µM (inactive),> 100 µM (inactive),> 100 µM (inactive),> 100,> 100 µM (inactive),> 100 µM (inactive),> 100 µM (inactive),> 100 µM (inactive)
COc1ccccc1NC(=O)C1=C(C)NC(C)=C(C(=O)Nc2ccccc2OC)C1c1ccccc1F,59 µM (inactive),> 100 µM (inactive),36.2 µM (inactive),> 100 µM (inactive),> 100 µM (inactive),50.2 µM (inactive),49.2 µM (inactive),57.5 µM (inactive),> 100 µM (inactive),55.8 µM (inactive),98.6,> 100 µM (inactive),> 100 µM (inactive),–,–
O=C(CN1CCCCC1)N1CCc2c([nH]c3ccccc23)C1c1cccnc1 (stereo not given),> 100 µM (inactive),> 100 µM (inactive),> 100 µM (inactive),> 100 µM (inactive),> 100 µM (inactive),> 100 µM (inactive),> 100 µM (inactive),> 100 µM (inactive),> 100 µM (inactive),–,> 100,> 100 µM (inactive),> 100 µM (inactive),> 100 µM (inactive),40.5 µM (inactive)
Cn1nc(-c2ccccc2)c(C(=O)/C=C/c2ccc(Cl)cc2)c(N2CCCCC2)c1=O,1.81 µM (inactive),1.69 µM (inactive),2.04 µM (inactive),3.52 µM (inactive),3.15 µM (inactive),3.85 µM (inactive),1.53 µM (inactive),1.8 µM (inactive),3.8 µM (inactive),–,2.98,–,2.15 µM (inactive),1.85 µM (inactive),1.32 µM (inactive)
CC(=O)NNc1nc(C)c(C(=O)NNC(=O)C(=O)Nc2ccc(C)c(C)c2)s1,> 100 µM (inactive),> 100 µM (inactive),52.6 µM (inactive),> 100 µM (inactive),> 100 µM (inactive),> 100 µM (inactive),39.6 µM (inactive),58.2 µM (inactive),55.5 µM (inactive),> 100 µM (inactive),78.9,> 100 µM (inactive),> 100 µM (inactive),18.5 µM (inactive),> 100 µM (inactive)
CC(=O)NC1C(OCc2ccccc2)OC(COC(=O)CCCCCCCCCCNC(=O)CCNc2ccc([N+](=O)[O-])c3[nH]c4ccc(O)cc4c(=O)c23)C(O)C1OC(C)C(=O)N[C@H](C(=O)N[C@H](CCC(=O)O)C(N)=O)C(C)C (stereo not given in full),53.7 µM (inactive),76 µM (inactive),76.9 µM (inactive),84.1 µM (inactive),48.5 µM (inactive),96.8 µM (inactive),43.2 µM (inactive),81.8 µM (inactive),> 100 µM (inactive),28.8 µM (inactive),> 100,69.8 µM (inactive),> 100 µM (inactive),17.4 µM (inactive),69.3 µM (inactive)
CC(C)=CC1CCc2ccccc2N1S(=O)(=O)c1ccc(C)cc1 (stereo not given),0.982 µM (active),2.35 µM (inactive),0.59 µM (active),1.7 µM (inactive),1.27 µM (inactive),10.6 µM (inactive),1.18 µM (inactive),2.36 µM (inactive),2.72 µM (inactive),1.79 µM (inactive),1.09,1.61 µM (inactive),2.4 µM (inactive),1.52 µM (inactive),1.24 µM (inactive)
Cc1c(C(=O)/C=C/c2ccccc2Cl)[n+]([O-])c2ccccc2[n+]1[O-],10.6 µM (inactive),12.6 µM (inactive),5.53 µM (inactive),20.4 µM (inactive),15.2 µM (inactive),17.3 µM (inactive),16 µM (inactive),7.08 µM (inactive),13.3 µM (inactive),13.6 µM (inactive),10.1,14 µM (inactive),15 µM (inactive),11.2 µM (inactive),–
CC12CCC(C)(c3cc(O)c(O)cc31)c1cc(O)c(O)cc12,–,14.7 µM (inactive),7.06 µM (inactive),19.2 µM (inactive),17.2 µM (inactive),25.1 µM (inactive),15.1 µM (inactive),8.47 µM (inactive),19.7 µM (inactive),32.6 µM (inactive),13.7,–,20.3 µM (inactive),2.29 µM (inactive),16.1 µM (inactive)
C=C1C(=O)OC2C1CC[C@H](C)C1(O)C(O)CC(=O)[C@@]21C (stereo not given in full),15 µM (inactive),24.2 µM (inactive),14.3 µM (inactive),24.9 µM (inactive),–,19.5 µM (inactive),14.4 µM (inactive),> 10 µM (inactive),17.4 µM (inactive),27.2 µM (inactive),–,10 µM (inactive),28.8 µM (inactive),–,> 10 µM (inactive)
[N-]=[N+]=NC(CI)c1cn([C@H]2C[C@H](O)[C@@H](CO)O2)c(=O)[nH]c1=O (stereo not given in full),> 100 µM (inactive),63.2 µM (inactive),83.9 µM (inactive),> 100 µM (inactive),> 100 µM (inactive),> 100 µM (inactive),> 100 µM (inactive),> 100 µM (inactive),> 100 µM (inactive),> 100 µM (inactive),> 100,–,> 100 µM (inactive),> 100 µM (inactive),> 100 µM (inactive)
COc1cc2c(c(OC)c1OC)-c1ccc(SC)c(=O)cc1[C@@H](NC(=O)c1ccc(F)cc1)CC2,0.0416 µM (active),0.0488 µM (active),0.0284 µM (active),0.0294 µM (active),0.0378 µM (active),0.0461 µM (active),0.0601 µM (active),0.0356 µM (active),0.053 µM (active),0.0407 µM (active),–,0.0399 µM (active),0.0594 µM (active),< 0.01 µM (active),–

# From ChEMBL document CHEMBL1201862, “PubChem BioAssay data set” (2004)
